Laboratory results from PMC11985751, “Synthesis, bioactivity, and molecular docking studies: novel arylpiperazine derivatives as potential new-resistant AR antagonists” (Frontiers in Chemistry, 2025).

Tests used:
PC-3 = experiment: In vitro cytotoxicity, CCK-8 assay; format: cell-based, human; settings: CCK-8, mean ± SD of three trials
Protocol: (§1) PC-3 and WPMY-1 cells were cultured in Dulbecco’s modiffcation Eagle’s medium (DMEM, Invitrogen, Carlsbad, CA, United States) supplemented with 10% fetal bovine serum (FBS, Hyclone, Logan, UT, United States), 100 U/mL penicillin and 0.1 mg/mL streptomycin (Invitrogen). DU145 cells were cultured in RPMI1640 media supplemented with 10% fetal bovine serum (FBS, Hyclone), 100 U/mL penicillin and 0.1 mg/mL streptomycin (Invitrogen). LNCaP cells were cultured in F12 media supplemented with 10% fetal bovine serum (FBS, Hyclone), 100 U/mL penicillin and 0.1 mg/mL streptomycin (Invitrogen). The cells were incubated at 37°C in a humidified atmosphere with 5% CO2([Chen et al., 2025]; [Jiang et al., 2024]). […]
(§2) The compound concentrations were set at 30, 15, 7.5, 3.75, 1.88, and 0.94 μmol/L. The absorbance (A) was measured at 450 nm using a microplate reader. […] All experiments were repeated three times under identical conditions, and the mean value was taken as the final result.
(§3) The cytotoxic activity of derivatives 5–24 against three human prostate cancer cell lines (PC-3, LNCaP, and DU145) and one type of human normal prostate epithelial cells was evaluated using the CCK-8 method.

LNCaP = experiment: In vitro cytotoxicity, CCK-8 assay; format: cell-based, human; settings: Homo sapiens, LNCaP, LNCaP cells, CCK-8, mean ± SD of three trials
Protocol: PC-3 and WPMY-1 cells were cultured in Dulbecco’s modiffcation Eagle’s medium (DMEM, Invitrogen, Carlsbad, CA, United States) supplemented with 10% fetal bovine serum (FBS, Hyclone, Logan, UT, United States), 100 U/mL penicillin and 0.1 mg/mL streptomycin (Invitrogen). DU145 cells were cultured in RPMI1640 media supplemented with 10% fetal bovine serum (FBS, Hyclone), 100 U/mL penicillin and 0.1 mg/mL streptomycin (Invitrogen). LNCaP cells were cultured in F12 media supplemented with 10% fetal bovine serum (FBS, Hyclone), 100 U/mL penicillin and 0.1 mg/mL streptomycin (Invitrogen). The cells were incubated at 37°C in a humidified atmosphere with 5% CO2([Chen et al., 2025]; [Jiang et al., 2024]).
The proliferative capacity of cells was evaluated through the implementation of a Cell Counting Kit-8 (CCK-8) assay, supplied by Dojindo (Japan), to quantify cellular growth. Post-transfection, cells were dispensed into a 96-well microplate at a density of 3 × 10^3 cells per well and incubated for intervals of 0, 24, 48, 72, 96, and 120 h. Following this, 10 μL of the CCK-8 solution was introduced into each well and the plates were returned to the incubator for an additional 2-h period at 37°C under 5% CO2 conditions. Absorbance readings at 450 nm were subsequently taken using an ELISA reader manufactured by Bio Tek (United States) ([Chen et al., 2022]; [Zhou et al., 2024]).
as §2, §3

DU145 = experiment: In vitro cytotoxicity, CCK-8 assay; format: cell-based; settings: Homo sapiens, DU-145; DU145 cells, CCK-8, mean ± SD of three trials
Protocol: as §1, §2, §3

WPMY-1 = experiment: In vitro cytotoxicity, CCK-8 assay (normal prostatic epithelial cells); format: cell-based; settings: Homo sapiens; WPMY-1 normal prostatic epithelial cells, CCK-8, mean ± SD of three trials
Protocol: as §1, §2, §3

AR = target: T1, AR (Homo sapiens, UniProt P10275); experiment: AR reporter gene (luciferase) assay, co-treatment with 1 nM R1881; format: cell-based; settings: 10 μM compound, inhibition rate as ratio to R1881 control, read-out: AR antagonistic activity% (10 μM)
T1 sequence (P10275 1-920): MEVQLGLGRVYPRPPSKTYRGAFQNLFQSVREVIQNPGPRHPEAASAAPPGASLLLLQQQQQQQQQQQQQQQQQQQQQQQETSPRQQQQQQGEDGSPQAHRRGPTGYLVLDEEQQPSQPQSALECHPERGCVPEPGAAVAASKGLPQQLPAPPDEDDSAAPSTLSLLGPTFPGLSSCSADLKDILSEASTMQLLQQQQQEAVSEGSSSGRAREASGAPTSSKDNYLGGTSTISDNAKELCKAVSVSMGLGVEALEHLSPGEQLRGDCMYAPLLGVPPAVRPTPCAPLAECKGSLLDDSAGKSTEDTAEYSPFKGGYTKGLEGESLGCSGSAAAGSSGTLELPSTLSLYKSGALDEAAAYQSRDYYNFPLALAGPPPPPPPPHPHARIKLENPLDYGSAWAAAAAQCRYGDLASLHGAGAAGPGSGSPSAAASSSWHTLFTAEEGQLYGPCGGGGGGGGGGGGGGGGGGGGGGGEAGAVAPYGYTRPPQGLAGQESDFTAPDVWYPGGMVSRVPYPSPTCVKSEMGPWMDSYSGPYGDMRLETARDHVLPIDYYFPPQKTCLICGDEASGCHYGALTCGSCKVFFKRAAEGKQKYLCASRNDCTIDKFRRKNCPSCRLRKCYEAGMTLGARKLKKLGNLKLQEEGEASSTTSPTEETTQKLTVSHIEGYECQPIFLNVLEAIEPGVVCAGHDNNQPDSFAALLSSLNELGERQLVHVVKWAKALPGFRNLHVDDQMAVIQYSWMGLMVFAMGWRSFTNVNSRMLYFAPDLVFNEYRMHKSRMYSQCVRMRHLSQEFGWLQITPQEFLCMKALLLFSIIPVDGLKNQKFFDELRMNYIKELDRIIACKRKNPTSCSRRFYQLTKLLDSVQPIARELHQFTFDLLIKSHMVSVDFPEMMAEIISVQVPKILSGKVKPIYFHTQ
Protocol: RLUs were measured using a luminometer (GloMaxTM 96-Microplate Luminometer, Promega) and are reported as the mean ± SEM of three individual experiments. For agonists, fold of induction = LUinduced/RLUuninduced. For antagonists, % of control = 100 × RLU (agonist + antagonist)/RLU (agonist alone). All RLUs were normalized against ffreffy RLUs/Renilla RLUs. Data are expressed as EC50/IC50 values in μM, and the IC50 of […] (μM) was calculated by plotting the data using nonlinear regression analysis in Graph-Pad Prism 5 software.

AR-LBD (GST) = target: T2, AR-LBD (GST) (Rattus norvegicus, UniProt P15207); experiment: Fluorescence polarization, PolarScreen AR Competitor Assay, Green
T2 sequence (P15207 651-882 limits assumed): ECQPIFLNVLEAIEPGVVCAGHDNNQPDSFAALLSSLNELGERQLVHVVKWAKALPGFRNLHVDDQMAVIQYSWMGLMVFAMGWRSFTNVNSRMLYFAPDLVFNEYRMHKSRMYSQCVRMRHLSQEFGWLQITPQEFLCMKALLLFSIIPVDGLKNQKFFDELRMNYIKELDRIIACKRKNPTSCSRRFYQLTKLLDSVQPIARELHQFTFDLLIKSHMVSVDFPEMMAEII
Protocol: Brieffy, the assay entails titration of the test compound against a preformed complex of Fluormone™AL Green and the AR-LBD (GST). […] Data analysis for the ligand binding assays was performed using Prism software (GraphPad Software, Inc.).

| SMILES | IC50 (PC-3; Homo sapiens, PC-3, PC-3 cells) [µM] | IC50 (LNCaP) [µM] | IC50 (DU145) [µM] | IC50 (WPMY-1) [µM] | activity at 10 µM (AR) [%] | IC50 (AR-LBD (GST)) [µM] | IC50 (PC-3; PC-3 cells) [µM] |
| --- | --- | --- | --- | --- | --- | --- | --- |
| c1ccc(C(c2ccccc2)N2CCN(Cc3ccc(CCOc4cccc5ccccc45)cc3)CC2)cc1 [Compound 22, 1-benzhydryl-4-(4-(2-(naphthalen-1-yloxy)ethyl)benzyl)piperazine] | 10.1 ± 0.17 | 6.78 ± 0.14 | 15.76 ± 0.09 | 33.16 ± 0.15 | 40.3 ± 1.2 | 3.02 ± 0.24 | – |
| FC(F)(F)c1ccc(OCCc2ccc(CN3CCN(C(c4ccccc4)c4ccccc4)CC3)cc2)cc1 [Compound 24, 1-benzhydryl-4-(4-(2-(4-(trifluoromethyl)phenoxy)ethyl)benzyl)piperazine] | < 5 | 14.6 ± 0.18 | 5.76 ± 0.14 | > 50 | 47.3 ± 0.6 | 2.87 ± 0.22 | 3.94 ± 0.14 |
| Cc1cc(C)cc(OCCc2ccc(CN3CCN(C(c4ccccc4)c4ccccc4)CC3)cc2)c1 [Compound 7, 1-benzhydryl-4-(4-(2-(3,5-dimethylphenoxy)ethyl)benzyl)piperazine] | < 5 | > 50 | 24.76 ± 0.21 | > 50 | 50.1 ± 1.1 | 2.15 ± 0.13 | 2.95 ± 0.04 |
